From patent publication US20120183579A1, “COMPOUNDS FOR INFLAMMATION AND IMMUNE-RELATED USES” (Synta Pharmaceuticals Corp., priority 2008, published 2012) come the findings set out here.

The target of one experiment is T1, CRACM1/STIM1-CHOK1 (Homo sapiens, UniProt Q96D31).
T1 construct: Full length human Stim1, CracM1, CracM2 and CracM3 cDNA; Stim1 induced with doxycycline
Kind of experiment: Patch clamp inhibition of ICRAC current in CRACM1/STIM1-CHOK1 cells. To be noted: at 500 nM, activity class. The experiment is classed as cell-based. On the procedure: Manual patch clamp experiments are conducted in the tight-seal whole-cell configuration at room temperature (21-25° C.). Patch pipettes are fashioned from borosilicate glass capillary tubes and have resistances between 2-4 MO after filling with standard intracellular solution. High resolution current recordings are acquired with a computer-based patch clamp amplifier system (EPC-10, HEKA, Lambrecht, Germany). All voltages are corrected for a liquid junction potential of 10 mV between external and internal solutions with glutamate as the intracellular anion. Currents are filtered at 2.9 kHz and digitized at 10 μs intervals. Capacitive currents and series resistance are determined and corrected before each voltage ramp using the automatic capacitance compensation of the EPC-10.
In general, a whole cell patch clamp method is used to examine the effects of a compound of the invention on a channel(s) that mediates ICRAC. In such experiments, a baseline ICRAC measurement is established within the first 70 voltage ramps, or 140 seconds, for a patched cell. Then the cells are perfused with the compound to be tested and the effect of the compound on ICRAC is measured for at least an additional 440 to 500 seconds. A compound that modulates ICRAC (e.g., inhibits) is a compound that is useful in the invention for modulating CRAC ion channel activity.
Each compound is diluted from a 10 mM stock in series using DMSO. The final DMSO concentration is always kept at 0.1%.
ICRAC currents are measured using 50 msec voltage ramps between −100 mV to +100 mV. The voltage ramps are stimulated every 2 seconds for the first 70 sweeps, then every 5 seconds for the remainder of the experiment. The membrane potential is held at 0 mV between the test ramps. In a typical experiment, the peak inward currents will develop within 50-100 seconds. Once the ICRAC current is stabilized, the cells are perfused with a test compound in the extracellular solution for at least an additional 500 seconds.
Off-line analysis with the Heka PatchMaster software is used to separate the ICRAC membrane current from the cells basal background currents. In a typical recording, InsP3 stimulated ICRAC currents begin to develop in 6 to 12 seconds after whole cell is established. Therefore, the first 1-4 voltage ramps represent the basal membrane currents in the absence of ICRAC and the average value is subtracted from all subsequent traces. The current value at −80 mV for each ramp trace is then measured and plotted against time. The resulting current versus time data is exported into a Microsoft Excel spreadsheet. The % ICRAC inhibition in each cell is calculated by comparing the amount of current just prior to the compound perfusion to the amount of current after the cells has been perfused with the compound for 440-500 seconds. The IC50 value and Hill coefficient for each compound is estimated by fitting all the individual data points to a single-site Hill equation.
TREx™-CHO cells were transfected with human Stim1 (recombinant DNA in pcDNA4/TO/myc-His™ A with a myc epitope tag in the N-terminal) and either CracM1, CracM2 or CracM3 (recombinant DNA in pcDNA 3.1 with a HA epitope tag in the N-terminal). Stably expressing cells were selected by growing the transfected cells in antibiotics for two to three weeks. Individual cell clones were isolated via serial dilution. […]
On the technique in general: The patch-clamp technique gives a direct electrical read-out from membranes.

The next experiment relates to IL-2. Briefly: Inhibition of IL-2 production (Jurkat cells activated with PHA, ELISA). It is filed as cell-based. Conditions: Homo sapiens, Jurkat, Jurkat/PHA/1% FBS; activity class.

T1 sequence (Q96D31 whole entry): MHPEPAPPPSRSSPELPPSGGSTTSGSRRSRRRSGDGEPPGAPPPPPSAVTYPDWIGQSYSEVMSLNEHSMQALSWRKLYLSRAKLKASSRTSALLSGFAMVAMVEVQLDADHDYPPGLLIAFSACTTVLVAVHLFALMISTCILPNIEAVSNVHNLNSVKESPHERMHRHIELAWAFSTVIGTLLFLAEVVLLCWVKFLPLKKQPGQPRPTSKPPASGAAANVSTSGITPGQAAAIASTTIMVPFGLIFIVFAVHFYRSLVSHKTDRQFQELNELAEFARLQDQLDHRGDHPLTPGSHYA

By inhibition is commonly meant the percentage by which the read-out fell short of the control. In general, IC50 refers to the midpoint of a concentration-inhibition curve. Low readings indicate greater potency, high ones weaker potency. As for `CC1=C(c2cnc(NC(=O)c3c(F)cccc3F)cn2)CN(c2nc(C)cs2)CC1` [Compound 1, 2,6-difluoro-N-(5-(4-methyl-1-(4-methylthiazol-2-yl)-1,2,5,6-tetrahydropyridin-3-yl)pyrazin-2-yl)benzamide], the inhibition at 0.5 µM against CRACM1/STIM1-CHOK1 was 70 to 100%. In addition, the concentration for half-maximal inhibition (IC50) in the experiment on IL-2 was 50 to 100 nM.
The matching figures for `CC1=C(c2cnc(NC(=O)c3c(F)cccc3F)cn2)CN(S(=O)(=O)N(C)C)CC1` [Compound 2]: 70 to 100% and more than 100 nM.
For `CC1=C(c2ccc(NC(=O)c3cccc(F)c3F)cc2)CN(c2nccs2)CC1` [Compound 11, 2,3-difluoro-N-(4-(4-methyl-1-(thiazol-2-yl)-1,2,5,6-tetrahydropyridin-3-yl)phenyl)benzamide], in that order: 70 to 100% and less than 50 nM.
For `CC1=C(c2ccc(NC(=O)c3ccncc3C)cc2)CN(c2nccnc2Cl)CC1` [Compound 14, N-(4-(1-(3-chloropyrazin-2-yl)-4-methyl-1,2,5,6-tetrahydropyridin-3-yl)phenyl)-3-methylisonicotinamide], in that order: 50 to 70% and less than 50 nM.
`CC1=C(c2ccc(NC(=O)c3ccncc3F)cc2)CN(c2nccnc2Cl)CC1` [Compound 15, N-(4-(1-(3-chloropyrazin-2-yl)-4-methyl-1,2,5,6-tetrahydropyridin-3-yl)phenyl)-3-fluoroisonicotinamide] showed an inhibition at 0.5 µM at CRACM1/STIM1-CHOK1 of 50 to 70%. The same molecule returned an IC50 in the experiment with IL-2 of less than 50 nM.
